Test results reported in patent US20250326748A1, “COMPOUNDS AND METHODS FOR MODULATING SPLICING” (REMIX THERAPEUTICS INC., priority 2022, published 2025).
Read-outs that look alike come from different tables or passages of the source.

How the values were obtained:
[1] = system: HTT mRNA; assay: Splicing RT-qPCR assay, HTT canonical (CJ) and alternative (AJ) junction mRNA; type: cell-based, human; conditions: Homo sapiens; for IC50: canonical junction mRNA; for AC50: alternative junction mRNA, read-out: HTT AJ (AC50, increase in AJ mRNA)
Description: (§1) Compounds described herein were used to modulate RNA transcript abundance in cells. The expression of a target mRNA was measured by detecting the formation of an exon-exon junction in the canonical transcript (CJ). A compound mediated exon-inclusion event was detected by observing an increase in formation of a new junction with an alternative exon (AJ). Real-time qPCR assays were used to detect these splicing switches and interrogate the potency of various compounds towards different target genes. A high-throughput real time quantitative PCR (RT-qPCR) assay was developed to measure these two isoforms of the mRNA (CJ and AJ) for exemplary genes, such as HTT, SMN2, and MYB, together with a control housekeeping gene, GAPDH or GUSB or PPIA, used for normalization. Briefly, the A673 or K562 cell line was treated with various compounds described herein (e.g., compounds of Formula (D). After treatment, the levels of the HTT, MYB, or SMN2 mRNA targets were determined from each sample of cell lysate by cDNA synthesis followed by qPCR.
(§2) • Cells-to-CT 1-step kit: ThermoFisher A25602, Cells-to-CT lysis reagent: ThermoFisher 4391851C, TaqMan™ Fast Virus 1-Step Master Mix: ThermoFisher 4444436 • GAPDH: VIC-PL, ThermoFisher 4326317E (Assay: Hs99999905_m1)—used for K562/suspension cell lines • GUSB: VIC-PL, ThermoFisher 4326320E (Assay: Hs99999908_m1)—used for K562/suspension cell lines • PPIA: VIC-PL, ThermoFisher 4326316E (Assay: Hs99999904_m1)—used for A673/adherent cell lines
(§3) The A673 cell line was cultured in DMEM with 10% FBS. Cells were diluted with full growth media and plated in a 96-well plate (15,000 cells in 100 ul media per well). The plate was incubated at 37° C. with 5% CO2 for 24 hours to allow cells to adhere. An 11-point 3-fold serial dilution of the compounds was made in DMSO then diluted in media in an intermediate plate. Compounds were transferred from the intermediate plate to the cell plate with the top dose at a final concentration of 10 uM in the well. Final DMSO concentration was kept at or below 0.25%. The cell plate was returned to the incubator at 37° C. with 5% CO2 for an additional 24 hours.
(§4) The K562 cell line was cultured in IMDM with 10% FBS. For K562, cells were diluted with full growth media and plated in either a 96-well plate (50,000 cells in 50 uL media per well) or a 384-well plate (8,000-40,000 cells in 45 uL media per well). An 11-point 3-fold serial dilution of the compounds were made in DMSO then diluted in media in an intermediate plate. Compound was transferred from the intermediate plate to the cell plate with the top dose at a final concentration of 10 uM in the well. Final DMSO concentration was kept at or below 0.25%. Final volume was 100 uL for 96-well plate and 50 uL for 384-well plate. The cell plate was then placed in an incubator at 37° C. with 5% CO2 for 24 hours.
(§5) The cells were then gently washed with 50 uL-100 uL cold PBS before proceeding to addition of lysis buffer. 30 uL-50 μL of room temperature lysis buffer with DNAse I (and optionally RNAsin) was added to each well. Cells were shaken/mixed thoroughly at room temperature for 5-10 minutes for lysis to take place and then 3 uL-5 μL of room temperature stop solution was added and wells were shaken/mixed again. After 2-5 minutes, the cell lysate plate was transferred to ice for RT-qPCR reaction setup. The lysates could also be frozen at −80° C. for later use.
(§6) In some cases, a direct lysis buffer was used. An appropriate volume of 3× lysis buffer (10 mM Tris, 150 mM NaCl, 1.5%-2.5% Igepal and 0.1-1 U/uL RNAsin, pH 7.4) was directly added to either K562 or A673 cells in media and mixed by pipetting 3 times. The plates were then incubated at room temperature with shaking/rocking for 20-50 minutes to allow for lysis to take place. After this time, the cell lysate plate was transferred to ice to set up for the RT-qPCR reactions. The lysates could also be frozen at −80° C. for later use. […]

[2] = system: MYB mRNA; assay: Splicing RT-qPCR assay, MYB canonical (CJ) and alternative (AJ) junction mRNA; type: cell-based, human; conditions: Homo sapiens; for IC50: canonical junction mRNA; for AC50: alternative junction mRNA, read-out: MYB AJ (AC50, increase in AJ mRNA)
Description: as §1, §2, §3, §4, §5, §6

[3] = system: Target C mRNA; assay: Splicing RT-qPCR panel, Target C canonical junction (CJ) mRNA; type: cell-based, human; conditions: Homo sapiens, read-out: Target C CJ (decrease in CJ mRNA levels, IC50)
Description: as §1, §3, §4, §5
In some cases, a direct lysis buffer was used. An appropriate volume of 3× lysis buffer (10 mM Tris, 150 mM NaCl, 1.5%-2.5% Igepal and 0.1-1 U/uL RNAsin, pH 7.4) was directly added to either K562 or A673 cells in media and mixed by pipetting 3 times. The plates were then incubated at room temperature with shaking/rocking for 20-50 minutes to allow for lysis to take place. After this time, the cell lysate plate was transferred to ice to set up for the RT-qPCR reactions. The lysates could also be frozen at −80° C. for later use.
To set up 10 uL RT-qPCR reactions, cell lysates were transferred to 384-well qPCR plates containing the master mix according to the table below. The plates were sealed, gently vortexed, and spun down before the run. The volumes were adjusted accordingly in some instances where the reaction was carried in 20 μL. The table below summarizes the components of the RT-qPCR reactions:
The RT-qPCR reaction was performed using a QuantStudio (ThermoFisher) under the following fast cycling conditions. […]

[4] = system: K562 cells; assay: Cell viability, Cell Titer Glo 2.0 assay, K562; conditions: 72 hours
[5] = 24 h, RT-qPCR, A673 or K562 cells, 24 hours treatment, read-out: HTT CJ (IC50, decrease in CJ mRNA)
[6] = qPCR panel, read-out: HTT CJ (decrease in CJ mRNA levels, IC50)
[7] = RT-qPCR, A673 or K562 cells, 24 hours treatment
[8] = qPCR panel, read-out: MYB CJ (decrease in CJ mRNA levels, IC50)
[9] = RT-qPCR, A673 or K562 cells, 24 hours treatment, read-out: MYB CJ (IC50, decrease in CJ mRNA)

IC50 [1, 5] [µM]	IC50 [1, 6] [µM]	IC50 [2, 8] [µM]	IC50 [2, 9] [µM]	IC50 [3] [µM]	SMILES	AC50 [1, 7] [µM]	AC50 [2, 7] [µM]	Effect on Cell Viability, K562 [4]
< 0.1	< 0.1	< 0.1	< 0.1	0.1 to 1	Cc1c(O)c(-c2cc(Cl)c3cc(N4C[C@H](C)N[C@@H](C)C4)cnc3n2)cc2cn(C)nc12 [Compound 232, 5-{4-chloro-6-[(3S,5S)-3,5-dimethylpiperazin-1-yl]-1,8-naphthyridin-2-yl}-2,7-dimethylindazol-6-ol]	< 0.1	< 0.1	A (<100 nM)
1 to 10	1 to 10	0.1 to 1	0.1 to 1	> 10	Cc1c(O)c(-c2cc(C3CC3)c3cc(N4C[C@@H](C)N[C@@H](C)C4)cnc3n2)cc2cn(C)nc12 [Compound 374, 5-{4-cyclopropyl-6-[(3R,5S)-3,5-dimethylpiperazin-1-yl]-1,8-naphthyridin-2-yl}-2,7-dimethylindazol-6-ol]	1 to 10	0.1 to 1	C (1000-9999 nM)
> 10	> 10	0.1 to 1	0.1 to 1	> 10	Cc1c(O)c(-c2cc(Cl)c3cc(N4C[C@@H]5CCCN(C)[C@@H]5C4)cnc3n2)cc2cn(C)nc12 [Compound 375]	> 10	0.1 to 1	B (100-1000 nM)
> 10	> 10	1 to 10	1 to 10	> 10	CN1CCC[C@H]2CN(c3cnc4nc(-c5cc(F)c6nn(C)cc6c5)cc(Cl)c4c3)C[C@H]21 [Compound 376, 6-[(4aS,7aS)-1-methyl-hexahydro-2H-pyrrolo[3,4-b]pyridin-6-yl]-4-chloro-2-(7-fluoro-2-methylindazol-5-yl)-1,8-naphthyridine]	> 10	1 to 10	C (1000-9999 nM)
0.1 to 1	0.1 to 1	< 0.1	< 0.1	1 to 10	Cc1c(O)c(-c2cc(C3CC3)c3cc(N4C[C@H](C)N[C@@H](C)C4)cnc3n2)cc2cn(C)nc12 [Compound 377, 5-{4-cyclopropyl-6-[(3S,5S)-3,5-dimethylpiperazin-1-yl]-1,8-naphthyridin-2-yl}-2,7-dimethylindazol-6-ol]	0.1 to 1	< 0.1	B (100-1000 nM)
1 to 10	1 to 10	0.1 to 1	0.1 to 1	> 10	C[C@@H]1CN(c2cnc3nc(-c4cc5cn(C)nc5cc4O)cc(Cl)c3c2)CC2(CC2)N1 [Compound 378]	> 10	0.1 to 1	B (100-1000 nM)
1 to 10	1 to 10	0.1 to 1	0.1 to 1	> 10	Cn1cc2cc(-c3cc(Cl)c4cc(N5CCNC6(CC6)C5)cnc4n3)cc(F)c2n1 [Compound 382]	> 10	0.1 to 1	C (1000-9999 nM)
1 to 10	1 to 10	0.1 to 1	0.1 to 1	1 to 10	Cc1cn2nc(-c3cc(Cl)c4cc(N5CCNC6(CC6)C5)cnc4n3)cc(C)c2n1 [Compound 383]	1 to 10	0.1 to 1	C (1000-9999 nM)
0.1 to 1	0.1 to 1	< 0.1	< 0.1	1 to 10	Cc1c(O)c(-c2cc(C#N)c3cc(N4C[C@H](C)N[C@@H](C)C4)cnc3n2)cc2cn(C)nc12 [Compound 384, 6-[(3S,5S)-3,5-dimethylpiperazin-1-yl]-2-(6-hydroxy-2,7-dimethylindazol-5-yl)-1,8-naphthyridine-4-carbonitrile]	0.1 to 1	< 0.1	A (<100 nM)
